Source: PMC7009786 (ACS biomaterials science & engineering, 2018)

Tests used:
TOV-21G cells = test: Cell viability after 72 h incubation; assay type: cell-based; conditions: TOV-21G (Pt-sensitive), 56.6 μM, mean of N=3, Pt-NLS purity 87%
ES-2 cells = test: Cell viability after 72 h incubation; assay type: cell-based; conditions: ES-2 (Pt-sensitive), 18.4 μM, mean of N=3, Pt-NLS purity 87%
[1] = after 150 days; cited from earlier work
[2] = system: ovarian cancer-derived cell lines; assay type: cell-based

Row | Compound | decrease of cell viability (TOV-21G cells) | decrease of cell viability (ES-2 cells) | hydrolysed species [1] [%] | cytotoxicity in vitro (in words) [2]
1 | N.N.O=C([O-])C1(C(=O)[O-])CCC1.[Pt+2] [carboplatin, Carboplatin] | 40% | 20% | 3 | –
2 | O=C1[O][Pt]2([NH][C@@H]3CCCC[C@H]3[NH]2)[O]C1=O [oxaliplatin] | – | – | 3 | –
3 | PKKKRKV [Pt-NLS hybrid] | ~ 50% | ~ 30% | – | high cytotoxicity, significantly superior to carboplatin
